From ChEMBL document CHEMBL5244237, “Recent developments of small molecules targeting RNA m6A modulators” (Eur J Med Chem, 2020)
Values belong to the molecule of their own block, whether it stands above or below them.

Tests used:
[1] = biological target: T1, Alpha-ketoglutarate-dependent dioxygenase FTO (Homo sapiens, UniProt Q9C0B1); assay: Inhibition of FTO (unknown origin) mediated m6A methylation by HPLC analysis
MONO-MAC-6 = assay: Antiproliferative activity against human MONO-MAC-6 cells; format: functional, cell-based
[2] = biological target: T1, Alpha-ketoglutarate-dependent dioxygenase FTO; assay: Inhibition of full length human FTO expressed in Escherichia coli BL21(DE3) rosetta by HPLC analysis
[3] = biological target: T1, Alpha-ketoglutarate-dependent dioxygenase FTO; assay: Displacement of dm6A-containing ssDNA from truncated N-terminal his-tagged human FTO (31 residues) mediated demethylation activity expressed in Escherichia coli BL21(DE3) using ssDNA (5'-ATTGTCA(dm6A)CAGCAGA-FAM-3') as substrate by fluorescence polarization assay
[4] = biological target: T1, Alpha-ketoglutarate-dependent dioxygenase FTO
Description: Inhibition of FTO (unknown origin) (31 to 505 residues) by LC/MS analysis

T1 sequence (Q9C0B1 whole entry): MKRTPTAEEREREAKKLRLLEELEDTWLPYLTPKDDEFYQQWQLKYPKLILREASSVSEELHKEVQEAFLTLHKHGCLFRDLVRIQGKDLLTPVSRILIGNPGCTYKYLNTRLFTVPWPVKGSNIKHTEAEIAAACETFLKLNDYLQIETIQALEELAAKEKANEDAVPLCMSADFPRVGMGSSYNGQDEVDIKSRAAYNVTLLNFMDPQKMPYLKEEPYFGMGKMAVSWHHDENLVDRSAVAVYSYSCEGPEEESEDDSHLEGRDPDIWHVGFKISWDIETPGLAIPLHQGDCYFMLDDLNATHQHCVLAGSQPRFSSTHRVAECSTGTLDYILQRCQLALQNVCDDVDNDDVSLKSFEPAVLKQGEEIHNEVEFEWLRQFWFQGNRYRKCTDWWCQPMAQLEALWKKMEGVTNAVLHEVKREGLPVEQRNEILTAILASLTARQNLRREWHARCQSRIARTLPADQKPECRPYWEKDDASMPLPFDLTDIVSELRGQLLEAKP

IC50 [1]: 2600 nM
SMILES: Cc1noc(C)c1-c1cc(Cl)c(Nc2ccccc2C(=O)NO)c(Cl)c1
IC50 (MONO-MAC-6): 800 nM

IC50 [2]: 2600 nM
SMILES: O=C(O)c1ccnc(C(=O)NS(=O)(=O)c2ccc(C(F)(F)F)cc2)c1

IC50 [3]: 17400 nM
SMILES: Cc1ccc(Cl)c(Nc2ccccc2C(=O)O)c1Cl [MECLOFENAMIC ACID]

SMILES: C[C@@H]1C[C@H]2O[C@@H]2/C=C\C=C\C(=O)Cc2c(Cl)c(O)cc(O)c2C(=O)O1 [RADICICOL]
IC50 [4]: 16000 nM
